Test results taken from PMC12804144, “Lipopeptide ligands captured by MHC class I molecules undergo dynamic conformational changes that affect their antigenic strength” (The Journal of Biological Chemistry, 2025).

Legend:
SN45 TCR = test: Biolayer interferometry of SN45 TCR with lipopeptide-bound MHC class I complexes; format: binding, rhesus monkey
Text: Cell-based analyses may be influenced by undefined factors related to the use of live cells and serum components. Therefore, we first sought to validate the separation of the two groups at the molecular level. To this end, we investigated the kinetics of TCR–lipopeptide interactions in biolayer interferometry experiments. […] All refolded complexes were purified by size-exclusion and anion-exchange chromatography, and nearly identical elution profiles were obtained for each lipopeptide sample. […]
Figure 1 Biolayer interferometry analysis of interactions between the SN45 TCR and lipopeptide-bound Mamu-B∗05104 complexes. The molecular interaction kinetics of SN45 TCR and lipopeptide-bound Mamu-B∗05104 complexes were assessed using the Octet RED96 system, in which biotinylated SN45 TCR proteins were immobilized on streptavidin-coated sensors, and serially diluted Mamu-B∗05104 complexes were applied as analytes. […]
Biomolecular interaction analyses were performed using the Octet RED96 system equipped with a streptavidin-conjugated biosensor (Sartorius), according to the manufacturer’s instructions. […] A shift in the interference pattern was monitored in real time during this period. […]

[1] = tested on: J.RT3/SN45 (SN45 TCR-reconstituted Jurkat T-cell line); conditions: J.RT3/SN45 responder T cells; cited from earlier work
Text: J.RT3, a TCR-deficient Jurkat cell line, was transfected with SN45-derived TCRα and TCRβ complementary DNAs in a previous study. The SN45 TCR-reconstituted T-cell line (J.RT3/SN45) was used as responder T cells to compare antigenic activities among C14nef4-related analogs.

Row | Substance | binding to the SN45 TCR (SN45 TCR; C14nef5-bound Mamu-B∗098 complex as analyte, negative control) | antigenic group by biolayer interferometry (highly / poorly antigenic) (SN45 TCR; lipopeptide-bound Mamu-B∗05104 complex as analyte on immobilized SN45 TCR) | antigenic activity group (highly / poorly antigenic) [1]
1 | C14-Gly1-Gly2-Ala3-Ile4-Ser5 [C14nef5, reference compound] | failed to bind | – | –
2 | C14-Gly1-Gly2-Ala3-Ile4 [C14nef4] | – | highly antigenic | highly antigenic
